Experimental data taken from BindingDB's records for doi:10.1124/jpet.301.2.661 (University of Arkansas, 2002).
“And” between values parts separate entries of the source, which are not always exact repeats. Equal entries are not always repeated. Square brackets hold non-standard residues; d marks the D form. Peptide text beside a SMILES is read from it. * marks the point of attachment. Tyr(Nα,Nα-allyl2) = C=CCN(CC=C)[C@@H](Cc1ccc(O)cc1)C(=O)*; Tic = O=C(O)[C@@H]1Cc2ccccc2CN1; Aib = CC(C)(N)C(=O)O

Target: Delta-type opioid receptor (Homo sapiens, UniProt P41143)
Sequence (P41143 whole entry): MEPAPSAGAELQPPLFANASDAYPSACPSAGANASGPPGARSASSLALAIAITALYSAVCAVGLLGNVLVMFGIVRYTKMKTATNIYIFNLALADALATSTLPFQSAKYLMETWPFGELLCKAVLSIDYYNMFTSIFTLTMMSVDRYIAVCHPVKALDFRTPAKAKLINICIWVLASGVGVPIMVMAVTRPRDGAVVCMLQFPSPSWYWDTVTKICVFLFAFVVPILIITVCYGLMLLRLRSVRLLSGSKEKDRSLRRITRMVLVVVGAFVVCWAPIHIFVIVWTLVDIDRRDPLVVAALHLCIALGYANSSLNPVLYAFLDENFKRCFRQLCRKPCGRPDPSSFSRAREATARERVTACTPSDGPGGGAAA

| SMILES | Ki |
| --- | --- |
| C=CCN(CC=C)[C@@H](Cc1ccc(O)cc1)C(=O)NC(C)(C)C(=O)NC(C)(C)C(=O)N[C@@H](Cc1ccccc1)C(=O)N[C@@H](CC(C)C)C(=O)O [NSC_107691] ({Tyr(Nα,Nα-allyl2)}-[Aib][Aib]FL-OH) | 304 nM |
| N[C@@H](Cc1ccc(O)cc1)C(=O)N1Cc2ccccc2C[C@H]1C(=O)N[C@@H](Cc1ccccc1)C(=O)N[C@@H](Cc1ccccc1)C(=O)O [TIPP] (H-Y[Tic]FF-OH) | 5.8 nM and 3.02 nM |
